Measurements published in ChEMBL document CHEMBL1201862, “PubChem BioAssay data set” (2004).
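Method: 48-hour compound exposure of cells in 96-well plates, five concentrations, linear interpolation of endpoints. At the GI50, growth is halved.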 The source made the active and inactive calls. Cut-off read from the data, not from the text of the source: active = GI50 up to about 1.1 µM and inactive = higher.

Columns and labels:
Assay in all cases: growth of human tumour cells (NCI), 48 h
HOP-92 = test system: HOP-92
SK-OV-3 = test system: SK-OV-3
MDA-MB-231 = test system: MDA-MB-231
M14 = test system: M14
ACHN = test system: ACHN
SNB-19 = test system: SNB-19
MCF7 = test system: MCF7
HL-60 = test system: HL-60
NCI-H522 = test system: NCI-H522
MDA-N = test system: MDA-N
EKVX = test system: EKVX
Hs-578T = test system: Hs-578T
OVCAR-4 = test system: OVCAR-4
NCI-H226 = test system: NCI-H226
UACC-62 = test system: UACC-62
A549 = test system: A549
HOP-62 = test system: HOP-62
PC-3 = test system: PC-3
NCI-H460 = test system: NCI-H460
CCRF-CEM = test system: CCRF-CEM

Measured: GI50

CCC1c2[nH]c3ccccc3c2C[C@H]2C(=O)NC(Cc3c[nH]c4ccccc34)C(=O)N12 (stereo partly drawn)
inactive: HOP-92 26.5 µM | SK-OV-3 34 µM | MDA-MB-231 17.1 µM | M14 21.5 µM | ACHN 29.4 µM | SNB-19 37.5 µM | MCF7 27.3 µM | HL-60 19.2 µM | NCI-H522 22.6 µM | MDA-N 24.2 µM | EKVX 32 µM | Hs-578T 22.6 µM | OVCAR-4 29.9 µM | NCI-H226 32.7 µM | UACC-62 15.5 µM | A549 28 µM | HOP-62 24 µM | PC-3 18.7 µM

Cc1cc(=O)oc2c(OS(C)(=O)=O)c(OS(C)(=O)=O)ccc12
inactive: HOP-92 > 100 µM | MDA-MB-231 > 100 µM | M14 > 100 µM | ACHN > 100 µM | SNB-19 > 100 µM | MCF7 > 100 µM | HL-60 > 100 µM | NCI-H522 > 100 µM | NCI-H460 > 100 µM | MDA-N > 100 µM | EKVX > 100 µM | Hs-578T > 100 µM | OVCAR-4 > 100 µM | NCI-H226 > 100 µM | UACC-62 > 100 µM | A549 > 100 µM | CCRF-CEM > 100 µM | HOP-62 > 100 µM | PC-3 > 100 µM

CCOC(=O)C1C(C)C2(C#N)C(=N)OC1(C)C2(C#N)C#N (stereo not drawn)
inactive: HOP-92 30.1 µM | SK-OV-3 > 100 µM | MDA-MB-231 > 100 µM | M14 > 100 µM | ACHN 38.6 µM | SNB-19 79.3 µM | MCF7 55.2 µM | HL-60 21.8 µM | NCI-H522 71.9 µM | MDA-N 46.1 µM | EKVX > 100 µM | Hs-578T 40.9 µM | NCI-H226 73.8 µM | UACC-62 46 µM | A549 > 100 µM | PC-3 > 100 µM

COC(=O)c1cc(C)ccc1/C=C1\Cc2c(C)cc(C)cc2C1=O
inactive: HOP-92 4.56 µM | MDA-MB-231 > 36.6 µM | M14 17.3 µM | ACHN 60.7 µM | SNB-19 15.7 µM | MCF7 > 100 µM | HL-60 21.9 µM | NCI-H522 21.3 µM | NCI-H460 > 85.7 µM | MDA-N 25.5 µM | EKVX 41.5 µM | Hs-578T 14 µM | OVCAR-4 24.4 µM | NCI-H226 35.4 µM | UACC-62 6.59 µM | A549 99.3 µM | CCRF-CEM > 100 µM | HOP-62 11.9 µM | PC-3 > 39.8 µM

CN(C)CCCOCCn1c2c(c3ccccc31)CCCC2
inactive: HOP-92 13.2 µM | SK-OV-3 > 10 µM | MDA-MB-231 13 µM | M14 15.7 µM | ACHN 15.2 µM | MCF7 16.4 µM | HL-60 5.19 µM | NCI-H460 15 µM | MDA-N 14.9 µM | EKVX 21.9 µM | Hs-578T 19.7 µM | OVCAR-4 15.2 µM | NCI-H226 29.6 µM | UACC-62 16.7 µM | A549 17 µM | CCRF-CEM 12.9 µM | HOP-62 14.7 µM | PC-3 12.9 µM

Cc1ccc([S+]([O-])CC(CF)OCn2cc(C)c(=O)[nH]c2=O)cc1 (stereo not drawn)
inactive: HOP-92 > 100 µM | SK-OV-3 > 100 µM | MDA-MB-231 > 100 µM | M14 > 100 µM | ACHN > 100 µM | SNB-19 > 100 µM | MCF7 > 100 µM | HL-60 > 100 µM | NCI-H522 > 100 µM | NCI-H460 > 100 µM | MDA-N > 100 µM | Hs-578T > 100 µM | OVCAR-4 > 100 µM | NCI-H226 > 100 µM | UACC-62 > 100 µM | A549 > 100 µM | HOP-62 > 100 µM | PC-3 > 100 µM
